In patent US20230339937A1, “CONDENSED RING COMPOUNDS THAT INHIBIT H-PGDS” (SATO PHARMACEUTICAL CO., LTD., priority 2020, published 2023):
Structures can show the parent of a compound that is named as a salt.

Target: T1, Recombinant human H-PGDS (Homo sapiens, UniProt O60760)
T1 construct: made in house; host or cells: E. coli
Test: H-PGDS inhibitory activity (prostaglandin D2 production from prostaglandin H2, measured by LC-MS/MS)
Assay type: biochemical
Conditions: recombinant human H-PGDS 1.0 nM expressed in E. coli; prostaglandin H2 25 μM; preincubated 15 minutes on ice, reacted on ice for 1 minute; concentration that inhibits prostaglandin D2 production by 50%
How it was run: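 Recombinant human H-PGDS (E. coli-expressed, 1.0 nM final) preincubated with compound 15 min on ice in 20 mM Tris-HCl pH 8.0, 2 mM MgCl2, 2 mM GSH, 0.5 mg/mL γ-globulin. Reaction with 25 µM PGH2 run 1 min on ice, stopped with FeCl2/citric acid, PGD2 quantified by LC-MS/MS. Activity expressed as % of DMSO control after subtracting non-enzymatic PGD2.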

T1 sequence (O60760 whole entry): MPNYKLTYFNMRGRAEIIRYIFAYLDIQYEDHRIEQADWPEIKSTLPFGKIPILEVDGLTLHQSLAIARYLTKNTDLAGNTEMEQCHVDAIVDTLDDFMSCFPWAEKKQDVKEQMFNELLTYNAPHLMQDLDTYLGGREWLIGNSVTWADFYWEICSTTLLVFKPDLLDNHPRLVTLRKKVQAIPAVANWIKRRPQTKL

SMILES	IC50
[2H]C([2H])([2H])O[C@H]1CC[C@H](NC(=O)c2ccc(-c3nccc4occc34)cc2)CC1 [Example 286, 4-(furo[3,2-c]pyridin-4-yl)-N-[trans-4-(methoxy-d3)cyclohexyl]benzamide]	1 nM
COc1cnc(N2CCC(NC(=O)c3ccc(-c4nccc5occc45)cc3)CC2)nc1 [Example 168, 4-(furo[3,2-c]pyridin-4-yl)-N-[1-(5-methoxypyrimidin-2-yl)piperidin-4-yl]benzamide]	1.7 nM
CC(C)(O)[C@H]1CC[C@H](NC(=O)c2ccc(-c3nccc4occc34)c(C#N)c2)CC1 [Example 133, 3-cyano-4-(furo[3,2-c]pyridin-4-yl)-N-[trans-4-(2-hydroxypropan-2-yl)cyclohexyl]benzamide]	16 nM
CC(C)(O)CO[C@H]1CC[C@H](NC(=O)c2ccc(-c3nccc4occc34)cc2)CC1 [Example 64, 4-(furo[3,2-c]pyridin-4-yl)-N-[trans-4-(2-hydroxy-2-methylpropoxy)cyclohexyl]benzamide]	3.1 nM
Cc1cc(NC(=O)c2ccc(-c3nccc4occc34)cc2)ccc1S(N)(=O)=O [Example 116, 4-(furo[3,2-c]pyridin-4-yl)-N-(3-methyl-4-sulfamoylphenyl) benzamide]	1.6 nM
CO[C@H]1CN(c2ncc(CO)cn2)C[C@H]1NC(=O)c1ccc(-c2nccc3occc23)cc1 [Example 206, 4-(furo[3,2-c]pyridin-4-yl)-N-((3R,4S)-1-[5-(hydroxymethyl)pyrimidin-2-yl]-4-methoxypyrrolidin-3-yl)benzamide]	39 nM
O=C(N[C@@H]1C[C@H]2C[C@@H](O)C[C@H]2C1)c1ccc(-c2nccc3occc23)cc1 [Example 282, 4-(furo[3,2-c]pyridin-4-yl)-N-[(2r,3aR,5r,6aS)-5-hydroxyoctahydropentalen-2-yl]benzamide]	1.3 nM
O=C(N[C@H]1CCN(c2cccc(F)n2)C1)c1ccc(-c2nccc3occc23)cc1 [Example 226, (S)—N-[1-(6-fluoropyridin-2-yl)pyrrolidin-3-yl]-4-(furo[3,2-c]pyridin-4-yl)benzamide]	2.8 nM
CO[C@H]1CCC[C@@H](NC(=O)c2ccc(-c3nccc4occc34)cc2)C1 (relative stereo) [Example 275, 4-(furo[3,2-c]pyridin-4-yl)-N-(cis-3-methoxycyclohexyl)benzamide]	1.8 nM
Cn1c(N2CCC(NC(=O)c3ccc(-c4nccc5occc45)cc3)CC2)nccc1=O [Example 183, 4-(furo[3,2-c]pyridin-4-yl)-N-[1-(1-methyl-6-oxo-1,6-dihydropyrimidin-2-yl)piperidin-4-yl]benzamide]	1.7 nM
O=C(N[C@H]1CCN(c2cnc(CO)cn2)C1)c1ccc(-c2nccc3occc23)cc1 [Example 198, (S)-4-(furo[3,2-c]pyridin-4-yl)-N-{1-[5-(hydroxymethyl)pyrazin-2-yl]pyrrolidin-3-yl}benzamide]	2.3 nM
O=C(NC1CCC(N2CCC(F)(F)CC2)CC1)c1ccc(-c2nccc3occc23)cc1 (stereo not drawn) [Example 307, N-[4-(4,4-difluoropiperidin-1-yl)cyclohexyl]-4-(furo[3,2-c]pyridin-4-yl)benzamide]	2.2 nM
O=C(N[C@H]1COCCN(c2ncccn2)C1)c1ccc(-c2nccc3occc23)cc1 [Example 225, (R)-4-(furo[3,2-c]pyridin-4-yl)-N-[4-(pyrimidin-2-yl)-1,4-oxazepan-6-yl]benzamide]	6.5 nM
CC(C)(O)[C@H]1CC[C@H](NC(=O)c2ccc(-c3ncc(C(N)=O)c4occc34)cc2)CC1 [Example 140, 4-(4-([trans-4-(2-hydroxypropan-2-yl)cyclohexyl]carbamoyl)phenyl)furo[3,2-c]pyridine-7-carboxamide]	224 nM
Cc1cc2occc2c(-c2ccc(C(=O)N[C@H]3CC[C@H](C(C)(C)O)CC3)cc2F)n1 [Example 321, 3-fluoro-N-[trans-4-(2-hydroxypropan-2-yl)cyclohexyl]-4-(6-methylfuro[3,2-c]pyridin-4-yl)benzamide]	5.5 nM
CCCn1nnnc1N1CCC(NC(=O)c2ccc(-c3nccc4occc34)cc2)CC1 [Example 240, 4-(furo[3,2-c]pyridin-4-yl)-N-[1-(1-propyl-1H-tetrazol-5-yl)piperidin-4-yl]benzamide]	1.6 nM
O=C(Nc1cccc(F)c1)c1ccc(-c2nccc3occc23)cc1 [Example 112, N-(3-fluorophenyl)-4-(furo[3,2-c]pyridin-4-yl)benzamide]	3.4 nM
Cc1cc2[nH]ccc2c(-c2ccc(C(=O)N[C@H]3CC[C@H](C(C)(C)O)CC3)cc2)n1 [Example 338, N-[trans-4-(2-hydroxypropan-2-yl)cyclohexyl]-4-(6-methyl-1H-pyrrolo[3,2-c]pyridin-4-yl)benzamide]	2.4 nM
O=C(N[C@H]1CCN(c2cccc(=O)[nH]2)C1)c1ccc(-c2nccc3occc23)cc1 [Example 233, (S)-4-(furo[3,2-c]pyridin-4-yl)-N-[1-(6-oxo-1,6-dihydropyridin-2-yl)pyrrolidin-3-yl]benzamide]	7.5 nM
O=C(N[C@H]1CCN(c2ncc(CO)cn2)C1)c1ccc(-c2nccc3occc23)cc1 [Example 193, (S)-4-(furo[3,2-c]pyridin-4-yl)-N-{1-[5-(hydroxymethyl)pyrimidin-2-yl]pyrrolidin-3-yl}benzamide]	1 nM
O=C(NC1CCN(C(=O)C2CC2)CC1)c1ccc(-c2nccc3occc23)cc1 [Example 235, N-[1-(cyclopropanecarbonyl)piperidin-4-yl]-4-(furo[3,2-c]pyridin-4-yl)benzamide]	1.2 nM

The next lines start with the values.

IC50	SMILES
12 nM	O=C(NCc1ccccc1Cl)c1ccc(-c2nccc3occc23)cc1 [Example 71, N-(2-chlorobenzyl)-4-(furo[3,2-c]pyridin-4-yl)benzamide]
0.56 nM	COCCCNC(=O)c1ccc(-c2nccc3[nH]ccc23)cc1 [Example 24, N-(3-methoxypropyl)-4-(1H-pyrrolo[3,2-c]pyridin-4-yl)benzamide]
1.6 nM	Cn1ccnc1CNC(=O)c1ccc(-c2nccc3[nH]ccc23)cc1 [Example 52, N-[(1-methyl-1H-imidazol-2-yl)methyl]-4-(1H-pyrrolo[3,2-c]pyridin-4-yl)benzamide]
1.3 nM	O=C(NCc1cnn(CC(F)(F)F)c1)c1ccc(-c2nccc3[nH]ccc23)cc1 [Example 43, 4-(1H-pyrrolo[3,2-c]pyridin-4-yl)-N-{[1-(2,2,2-trifluoroethyl)-1H-pyrazol-4-yl]methyl} benzamide]
107 nM	CC(C)N(CCNC(=O)c1ccc(-c2nccc3occc23)cc1)C(C)C [Example 98, N-[2-(diisopropylamino)ethyl]-4-(furo[3,2-c]pyridin-4-yl)benzamide dihydrochloride]
15 nM	O=C(NCC1CC1)c1ccc(-c2nccc3occc23)cc1 [Example 83, N-(cyclopropyl-methyl)-4-(furo[3,2-c]pyridin-4-yl)benzamide]
6 nM	O=C(NCc1cccc(Cl)c1)c1ccc(-c2nccc3occc23)cc1 [Example 69, N-(3-chlorobenzyl)-4-(furo[3,2-c]pyridin-4-yl)benzamide]
1.6 nM	O=C(NCc1cccc(OC(F)F)c1)c1ccc(-c2nccc3[nH]ccc23)cc1 [Example 35, N-[3-(difluoromethoxy)benzyl]-4-(1H-pyrrolo[3,2-c]pyridin-4-yl)benzamide]
2.7 nM	CNC(=O)c1ccc(-c2nccc3[nH]ccc23)cc1 [Example 1, N-methyl-4-(1H-pyrrolo[3,2-c]pyridin-4-yl)benzamide]
4.8 nM	N#Cc1cccc(CNC(=O)c2ccc(-c3nccc4occc34)cc2)c1 [Example 73, N-(3-cyanobenzyl)-4-(furo[3,2-c]pyridin-4-yl)benzamide]
1.2 nM	Cc1cc(CNC(=O)c2ccc(-c3nccc4[nH]ccc34)cc2)[nH]n1 [Example 49, N-[(3-methyl-1H-pyrazol-5-yl)methyl]-4-(1H-pyrrolo[3,2-c]pyridin-4-yl)benzamide]
0.58 nM	O=C(NC1CCC1)c1ccc(-c2nccc3[nH]ccc23)cc1 [Example 13, N-cyclobutyl-4-(1H-pyrrolo[3,2-c]pyridin-4-yl)benzamide]
